Measured values: patent US20240067603A1, “CUBANYL BIGUANIDE COMPOUNDS” (REGENTS OF THE UNIVERSITY OF MINNESOTA, priority 2020, published 2024)
Where two headings read alike, the source gives them in different places.

Tests used:
CYP2C8 = target: T1, CYP2C8 (Homo sapiens, UniProt P10632); assay: CYP2C8-mediated arachidonic acid epoxygenase EET biosynthesis; type: biochemical
T1 construct: purchased Corning; host or cells: insect cells (microsomes)
T1 sequence (P10632 1-490): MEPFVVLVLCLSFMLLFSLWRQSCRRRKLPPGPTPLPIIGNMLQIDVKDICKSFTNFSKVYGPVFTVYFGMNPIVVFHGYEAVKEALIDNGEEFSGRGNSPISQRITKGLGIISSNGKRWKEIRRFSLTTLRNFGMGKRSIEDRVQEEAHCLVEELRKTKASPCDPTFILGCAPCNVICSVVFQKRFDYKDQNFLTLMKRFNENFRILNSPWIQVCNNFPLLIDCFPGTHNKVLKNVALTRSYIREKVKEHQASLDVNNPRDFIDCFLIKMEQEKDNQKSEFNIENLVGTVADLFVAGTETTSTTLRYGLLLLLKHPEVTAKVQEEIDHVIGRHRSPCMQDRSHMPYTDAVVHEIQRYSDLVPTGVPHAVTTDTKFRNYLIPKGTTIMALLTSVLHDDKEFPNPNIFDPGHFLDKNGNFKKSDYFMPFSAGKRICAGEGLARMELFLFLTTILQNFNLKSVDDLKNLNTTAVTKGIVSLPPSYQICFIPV
Protocol: Recombinant Microsomal CYP-mediated EET Biosynthesis. CYP Supersomes™ (Corning, NY) (1 μM, final concentration) were incubated at 37° C. for 30 min in the presence of AA (120 μM) in 50 μl potassium phosphate buffer, (50 mM, pH 7.4), containing 1 mM EDTA and 1 mM NADPH. Reactions were terminated by addition of 50 μL of acetonitrile spiked with ^13C-EET internal standards followed by vigorous vortexing. After centrifugation at 16,000×rpm for 10 minutes to precipitate proteins and other insoluble debris and 80 μL supernatant was transferred into HPLC vials and analyzed by with an LC-ESI/MRM/MS method.
LC-ESI/MRM/MS Method for EET Measurement. EETs were measured by an LC-ESI/MRM/MS analytical method on a ThermoFisher Vantage triple quadrupole mass spectrometer (ThermoFisher, San Jose, CA) coupled with an UltiMate 3000 HPLC (ThermoFisher, San Jose, CA), using argon as the collision gas. Negative ion monitoring was performed at the following diagnostic product ions: 319 m/z→155 m/z for 8,9-EET; 319 m/z→179 m/z for 11,12-EET; 319 m/z→219 m/z for 14,15-EET; 339 m/z→163 m/z for 8,9-[^13C-20]EET; 339 m/z→233 m/z for 11,12-[^13C-20]EET; and 339 m/z→259 m/z for 14,15-[^13C-20]EET. Base-line resolution of EET regioisomers was achieved on a Phenomenex Luna C18 (2) reverse phase capillary column (250×0.5 mm, 5-μm particles) using the following mobile phase combinations: isocratic 5% B for 5 min, gradient 5-70% B for 5 min, hold at 70% for 30 min and then 95% for 10 min; A: 0.01% acetic acid in water, B: 0.01% acetic acid in acetonitrile; 10 μl/min flow rate. A standard curve was obtained by linear regression of the peak area ratio of authentic EET regioisomers against internal standards. The amount of EETs in samples was calculated according to the standard curve.

MCF-7 cells [1] = assay: Oxygen consumption rate (OCR), Seahorse XFe, MCF-7; type: cell-based, human
Protocol: FIGS. 3A-3B. Effects of DCB (FIG. 3B) and HCB (FIG. 3A) on MCF-7 cells respiration. MCF-7 cells were seeded at 25,000 cells/well into a 96-well XF96 cell microplate. Growth media was replaced with 150 μL metabolism assay media the next day and cells were incubated CO2 free for 1 hour before the measurement of oxygen consumption rate (OCR) every seven minutes by a Seahorse XFe analyzer. Drugs were injected into the media after the fifth measurement (indicated by time point A and the dashed line). Results are reported as mean of percent of base OCR (OCR of the fifth measurement)±S.D. (n=12 for DMSO and 16 for treatment groups).
Measurement of oxygen consumption rate (OCR). Cells were maintained in growth medium consisting of 10% FBS at 37° C. with 5% CO2 and seeded at 25,000 cells per well in a 96-well XF96 cell culture microplates (Agilent, Santa Clara, CA). An 96 well XF sensor cartridge was hydrated and equilibrated with 200 ul calibrant in each well at 37° C. without CO2 overnight. […] OCRs were measured periodically and can be reported in pmoles/minute or normalized against baseline measurements before treatment.

MCF-7 cells [2] = assay: Mitochondrial swelling, JC-1 confocal imaging in MCF-7 cells; type: cell-based, human; details: 10 μM, FIG. 5
Protocol: FIG. 5. Mitochondrial swelling by HCB treatment in MCF-7 cells. MCF-7 cells were seeded at 30,000 cells/well into a chambered coverslip and treated with HCB or DMSO for 2 hours. JC-1 potential sensitive dye was added to a final concentration of 20 μM and incubation continued for an additional half an hour. Cell was then washed and imaged with a confocal microscope. Active mitochondria are stained yellow to orange. White arrows indicate swollen mitochondria.

T47D = assay: Inhibition of mammary carcinoma cell line T47D; type: cell-based; details: Table 5, human, ERα+, HER2−
Protocol: 3-(4,5-Dimethylthiazol-2-yl)-2,5-diphenyltetrazolium Bromide (MTT) Cell Proliferation Assay. To cells grown in 96-well-tissue culture plate, 20 μl/well of MTT solution (5 mg/ml in PBS) was added. After 1-2 hours incubation at 37° C., the plate was centrifuged. Supernatant was discarded and 100 μl DMSO was added to dissolve water insoluble formazan, and the absorbance was read at 540 nm with a plate reader.

MCF-7 tumors = assay: MCF-7 ER+ mammary tumor model; type: in vivo, mice
breast cancer cell lines = details: background statement; read-out: IC50, growth of breast cancer cell lines; cited from earlier work

Structure (SMILES) | IC50 (CYP2C8; (±)8,9-EET, read-out: IC50, CYP2C8 biosynthesis of (±)8,9-EET) | IC50 (CYP2C8; (±)11,12-EET, read-out: IC50, CYP2C8 biosynthesis of (±)11,12-EET) | fold lower inhibition of CYP2C8 (vs CYP3A4) (CYP2C8; (±)14,15-EET biosynthesis) | IC50 (CYP2C8; (±)14,15-EET, read-out: inhibition of CYP2C8-mediated biosynthesis of (±)14,15-EET) | effect on oxidative phosphorylation (OCR) (MCF-7 cells [1]; 10 μM, MCF-7 cells, FIGS. 3A-3B) | OCR Inhibition [HCB] (uM) v vs. control (P < 0.05) (MCF-7 cells [1]; MCF-7) | effect on mitochondrial tubule networks (MCF-7 cells [2]) | IC50 (T47D) | tumor control (MCF-7 tumors; subcutaneous route at the MTD, compared with other route) | oxidative phosphorylation in ER+/HER2− MCF-7 tumors (MCF-7 tumors; subcutaneous, MTD) | IC50 (breast cancer cell lines)
CCCCCCNC(=N)NC(=N)NCC12C3C4C5C3C1C5C42 (centres unmarked) [HCB, Hexyl Cubanomethyl Biguanide] | 31 µM | 52 µM | 10 fold | 42 µM | inhibited oxidative phosphorylation | 10 µM | caused loss of mitochondrial tubule networks | – | – | – | –
CCCCCCNC(=N)NC(=N)NCc1ccccc1 [HBB, N1-hexyl-N5-benzyl-biguanide] | – | – | – | – | – | – | – | 22 µM | equally effective | inhibit oxidative phosphorylation | 3 to 30 µM
